“And” between values parts separate entries of the source, which are not always exact repeats. Equal entries are not always repeated. The source made the active and inactive calls.
How the values were obtained:
[1] = molecular target: T1, Tyrosine-protein phosphatase non-receptor type 7 (Homo sapiens, UniProt P35236); type: functional
T1 sequence (P35236 whole entry): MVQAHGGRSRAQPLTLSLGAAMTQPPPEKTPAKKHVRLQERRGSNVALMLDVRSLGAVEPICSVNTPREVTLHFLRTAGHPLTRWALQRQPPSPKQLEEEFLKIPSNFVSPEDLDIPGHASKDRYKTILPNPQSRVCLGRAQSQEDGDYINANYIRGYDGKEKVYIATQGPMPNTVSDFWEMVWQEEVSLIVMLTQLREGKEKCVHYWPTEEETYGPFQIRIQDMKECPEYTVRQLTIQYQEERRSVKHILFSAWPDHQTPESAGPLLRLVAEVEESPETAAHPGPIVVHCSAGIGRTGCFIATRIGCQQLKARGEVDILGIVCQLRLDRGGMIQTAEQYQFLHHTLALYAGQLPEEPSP

[2] = molecular target: Glyceraldehyde-3-phosphate dehydrogenase (Homo sapiens, UniProt P04406)
[3] = molecular target: T2, Dual specificity protein phosphatase 6 (Rattus norvegicus, UniProt Q64346)
T2 sequence (Q64346 whole entry): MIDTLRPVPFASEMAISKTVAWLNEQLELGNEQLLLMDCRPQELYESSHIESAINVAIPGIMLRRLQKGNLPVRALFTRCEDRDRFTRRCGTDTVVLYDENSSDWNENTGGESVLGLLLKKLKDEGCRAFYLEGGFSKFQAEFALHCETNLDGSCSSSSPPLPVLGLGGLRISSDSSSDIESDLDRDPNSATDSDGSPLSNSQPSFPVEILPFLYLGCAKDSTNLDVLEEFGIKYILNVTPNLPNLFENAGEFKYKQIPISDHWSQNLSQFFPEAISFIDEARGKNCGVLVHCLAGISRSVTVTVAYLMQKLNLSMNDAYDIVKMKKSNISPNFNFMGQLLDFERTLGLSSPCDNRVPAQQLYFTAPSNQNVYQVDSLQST

[4] = molecular target: T2, Dual specificity protein phosphatase 6; type: functional
Protein Rev = Protein Rev (Human immunodeficiency virus type 1 group M subtype B (isolate HXB2)(HIV-1), UniProt P04618); experiment: blockers of HIV Rev/RRE RNA complex – biochemical, fluorescence polarization, HIV-1, dose response (AID 434976); set-up: species or system Human immunodeficiency virus 1
[5] = molecular target: Female germline-specific tumor suppressor gld-1 (Caenorhabditis elegans, UniProt Q17339); experiment: blockers of GLD-1/TGE RNA complex formation – biochemical, fluorescence polarization, C. elegans, dose response (AID 2802);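 further: fluorescence polarization of labeled TGE RNA bound by purified gld-1 protein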
NS3 = NS3 (Hepatitis C virus, UniProt A3EZJ3); experiment: PubChem AID 2173; set-up: species or system Hepacivirus hominis
Vero = experiment: viability of Vero cells under compound – cytotoxicity control for flavivirus capping enzyme inhibitors (AID 588742); type: functional; details: Chlorocebus sabaeus
Genome polyprotein = Genome polyprotein (dengue virus type 2, UniProt P29990); experiment: flavivirus cap methylation enzyme inhibition – biochemical, confirmation dose response, primary screen (AID 588689); type: functional
X-box-binding protein 1 = X-box-binding protein 1 (Homo sapiens, UniProt P17861); type: functional, Cricetulus griseus;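 further: confirmatory dose-response counter-screen serving a CHOP assay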
[6] = molecular target: T3, Eukaryotic translation initiation factor 2-alpha kinase 3 (Homo sapiens, UniProt Q9NZJ5); experiment: Dose response cell-based high-throughput screening assay to measure PERK inhibition. [Related pubchem assays: 1416 ]; type: functional
T3 sequence (Q9NZJ5 whole entry): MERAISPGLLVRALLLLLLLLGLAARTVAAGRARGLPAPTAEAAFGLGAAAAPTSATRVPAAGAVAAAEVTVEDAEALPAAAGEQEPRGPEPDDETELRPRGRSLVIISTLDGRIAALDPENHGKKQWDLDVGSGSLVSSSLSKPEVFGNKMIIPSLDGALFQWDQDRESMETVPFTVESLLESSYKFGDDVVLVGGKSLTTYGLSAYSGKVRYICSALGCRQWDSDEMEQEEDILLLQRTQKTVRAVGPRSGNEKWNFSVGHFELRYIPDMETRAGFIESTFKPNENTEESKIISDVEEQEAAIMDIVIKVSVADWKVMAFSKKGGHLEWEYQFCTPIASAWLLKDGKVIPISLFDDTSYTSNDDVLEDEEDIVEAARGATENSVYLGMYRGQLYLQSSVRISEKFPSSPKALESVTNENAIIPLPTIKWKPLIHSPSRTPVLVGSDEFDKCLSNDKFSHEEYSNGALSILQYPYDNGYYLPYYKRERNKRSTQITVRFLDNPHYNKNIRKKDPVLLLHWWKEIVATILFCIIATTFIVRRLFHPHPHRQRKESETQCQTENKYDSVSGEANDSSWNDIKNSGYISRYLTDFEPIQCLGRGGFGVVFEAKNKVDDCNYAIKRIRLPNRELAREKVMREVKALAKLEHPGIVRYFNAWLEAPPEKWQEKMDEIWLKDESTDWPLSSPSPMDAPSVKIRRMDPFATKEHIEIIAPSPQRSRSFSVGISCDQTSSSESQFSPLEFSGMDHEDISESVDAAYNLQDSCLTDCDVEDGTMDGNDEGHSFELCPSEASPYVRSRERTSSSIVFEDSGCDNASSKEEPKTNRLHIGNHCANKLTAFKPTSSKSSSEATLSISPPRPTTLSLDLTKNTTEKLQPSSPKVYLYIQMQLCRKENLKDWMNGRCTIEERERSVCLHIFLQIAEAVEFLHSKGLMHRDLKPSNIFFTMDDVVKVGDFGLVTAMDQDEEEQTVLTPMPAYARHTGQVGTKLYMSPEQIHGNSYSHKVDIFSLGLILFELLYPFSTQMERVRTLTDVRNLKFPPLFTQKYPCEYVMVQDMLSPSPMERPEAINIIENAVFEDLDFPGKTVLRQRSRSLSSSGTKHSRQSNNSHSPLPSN

[7] = molecular target: T3, Eukaryotic translation initiation factor 2-alpha kinase 3; experiment: Counterscreen assay for PERK inhibitors: Dose response cell-based high throughput screening assay to measure inhibition of PERK at 6 hours. [Related pubchem assays: 1522, 1416 ]; type: functional
Tumor necrosis factor = Tumor necrosis factor (Homo sapiens, UniProt P01375); experiment: analog potency on TNFa NF-kB signaling – cell-based, revised, SAR follow-up (AID 2337); type: functional
[8] = molecular target: T4, Nucleotide-binding oligomerization domain-containing protein 1 (Homo sapiens, UniProt Q9Y239); experiment: blockers of NOD1 pathway activity – revised, SAR follow-up (AID 2333); type: functional
T4 sequence (Q9Y239 whole entry): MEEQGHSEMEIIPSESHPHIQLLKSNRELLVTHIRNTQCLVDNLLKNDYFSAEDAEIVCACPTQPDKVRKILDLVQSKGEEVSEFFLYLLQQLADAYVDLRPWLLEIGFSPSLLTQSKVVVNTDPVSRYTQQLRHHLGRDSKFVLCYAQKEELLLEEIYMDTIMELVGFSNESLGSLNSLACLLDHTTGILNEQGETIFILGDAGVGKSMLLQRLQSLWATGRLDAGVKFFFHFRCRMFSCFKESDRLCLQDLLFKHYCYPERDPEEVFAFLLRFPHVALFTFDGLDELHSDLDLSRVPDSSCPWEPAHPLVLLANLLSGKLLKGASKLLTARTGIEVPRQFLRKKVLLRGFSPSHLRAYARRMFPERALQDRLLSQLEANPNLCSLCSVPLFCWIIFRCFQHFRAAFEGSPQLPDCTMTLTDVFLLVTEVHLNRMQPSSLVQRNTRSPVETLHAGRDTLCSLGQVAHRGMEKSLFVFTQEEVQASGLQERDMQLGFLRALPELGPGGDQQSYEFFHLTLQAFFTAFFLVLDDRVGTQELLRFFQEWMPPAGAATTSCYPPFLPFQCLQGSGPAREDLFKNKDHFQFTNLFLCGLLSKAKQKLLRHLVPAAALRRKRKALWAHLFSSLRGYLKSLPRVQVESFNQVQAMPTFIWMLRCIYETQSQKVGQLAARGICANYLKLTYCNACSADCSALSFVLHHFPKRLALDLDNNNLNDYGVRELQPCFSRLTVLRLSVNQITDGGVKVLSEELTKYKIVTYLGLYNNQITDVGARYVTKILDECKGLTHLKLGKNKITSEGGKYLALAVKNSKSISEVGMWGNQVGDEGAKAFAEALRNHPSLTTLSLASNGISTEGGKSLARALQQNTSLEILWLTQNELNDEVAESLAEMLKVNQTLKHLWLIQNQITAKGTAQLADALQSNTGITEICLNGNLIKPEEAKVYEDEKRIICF

[9] = molecular target: Nucleotide-binding oligomerization domain-containing protein 2 (Homo sapiens, UniProt Q9HC29); experiment: PubChem AID 2334; type: functional
HEK293 = experiment: cells; details: Homo sapiens;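 further: cells exposed to compound for 14 hours overnight before viability readout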
[10] = molecular target: Acyl-homoserine lactone acylase PvdQ (Pseudomonas aeruginosa (strain LESB58), UniProt Q9I194); experiment: PvdQ acylase enzyme activity blockers – biochemical, fluorescence, plate reader and imaging, cherry-picks, dose response (AID 493231)
[11] = Luminescence Cell-Based Dose Confirmation HTS to Identify Activators of 5'UTR Stem-Loop Driven Alpha-Synuclein mRNA Translation in H4 Neuroglioblastoma Cells. [Related pubchem assays: 1829 (Project Summary), 1814 (Primary HTS)]; type: functional
H4 = experiment: Luminescence Cell-Based Dose Response HTS to Identify Activators of 5'UTR Stem-Loop Driven Prion Protein mRNA Translation in H4 Neuroglioblastoma Cells. [Related pubchem assays: 1829 (Project Summary), 1814 (Primary HTS)]; type: functional; details: Homo sapiens
[12] = molecular target: Luciferin 4-monooxygenase (Photinus pyralis, UniProt P08659); experiment: inhibition of purified Photinus pyralis luciferase – biochemical, luminescence, dose response (AID 1891)
[13] = Luminescence Cell-Based Dose Confirmation HTS to Identify Inhibitors of Platelet Dense Granule Release. [Related pubchem assays: 1663 (Primary HTS), 1678 (Summary of Project)]; type: functional
[14] = CCR5-tropic HIV-1 fusion blockers – cell-based, CCR5-tropic Env, dose response (AID 2279); type: functional

CC(C)CNc1nc(=O)n(-c2ccc(F)cc2)c(=O)[nH]1
IC50 [1]: > 100 µM (not active)
IC50 [2]: > 100 µM (not active)
IC50 [3]: > 100 µM (inactive)
IC50 [4]: > 100 µM (inactive)

Nc1cccc(C(=O)OCC(=O)Nc2cccc3c2C(=O)c2ccccc2C3=O)c1
IC50 (Protein Rev): 5.22 µM (active)
IC50 [5]: 1.96 µM (active)

Cc1cc(N2C(=O)C(O)=C(C(=O)c3ccc(C)o3)C2c2cccc(Oc3ccccc3)c2)no1 (centres undefined)
IC50 (NS3): 1.95 µM (active)
CC50 (Vero): > 40 µM (active)
IC50 (Genome polyprotein): 32 µM (active)

Cc1cc(/C=N/Nc2nc(N)ncc2[N+](=O)[O-])c(C)n1-c1cccc(C(F)(F)F)c1
Absolute IC50 (XBP1) (X-box-binding protein 1): 10 µM

CN1CCOCCOCCN(C)C(=O)N2CCOCCOCCN(CCOCC2)C1=O
EC50 [6]: > 55.7 µM (not active)
EC50 [7]: > 55.7 µM (not active)

O=C(Nc1ccc(Br)cc1)c1ccc(CN2CCc3ccccc3C2)cc1
IC50 (Tumor necrosis factor): 1.5 µM (active) and 10.9 µM (active)
IC50 [8]: 1.03 µM (active) and 399 nM (active)
IC50 [9]: 1.62 µM (active)
IC50 (HEK293): > 20 µM (inactive)

O=C(Nc1nc2ccccc2n1Cc1ccccc1Cl)c1ccco1
IC50 (Tumor necrosis factor): > 20 µM (inactive)
IC50 [8]: > 20 µM (inactive)
IC50 [9]: > 20 µM (inactive)
IC50 (HEK293): > 20 µM (inactive)

Cc1cc2ccccn2c1C(=O)C(=O)O
IC50 [1]: > 100 µM (not active)
IC50 [2]: > 100 µM (not active)
IC50 [3]: > 100 µM (inactive)
IC50 [4]: > 100 µM (inactive)

CCOC(=O)c1ccc(N2C(=O)C(C)=C(C)C2=O)cc1
AC50 [10]: 25 µM (active)

COc1ccc(C(=O)C2=C(O)C(=O)N(c3ccccn3)C2c2ccc(C(C)C)cc2)cc1 (centres undefined)
EC50 [11]: 22.4 µM (active)
EC50 (H4): 17 µM (active)
IC50 (NS3): 6.24 µM (active)

CCc1cccc(C)c1NC(=O)Nc1ccc2c(c1)OCO2
EC50 [6]: > 55.7 µM (not active)
EC50 [7]: > 55.7 µM (not active)

Cc1ccc2c(c1)C1C3CCC(C3)C1[S+]([O-])N2 (centres undefined)
AC50 [10]: 25.6 µM (active)

CCOC(=O)c1sc(N2C(=O)C(O)=C(C(=O)c3ccc(C)o3)C2c2cccc([N+](=O)[O-])c2)nc1C (centres undefined)
EC50 [12]: > 112 µM (not active)
EC50 [13]: 18.5 µM (active)
IC50 [14]: 41.1 µM (active)

From ChEMBL document CHEMBL1201862, “PubChem BioAssay data set” (2004)
